# Patent US11535643B2, “Macrolides with modified desosamine sugars and uses thereof” (President and Fellows of Harvard College, priority 2015, dated 2022)
# Read-outs that look alike come from different tables or passages of the source.
# What was measured:
# Type in all cases: cell-based
# E. coli = test: Broth dilution MIC determination (CLSI) against E. coli strains; settings: for MIC: Escherichia coli
# Summary of the method: (§1)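 Following CLSI procedures, broth dilution is used to find the MIC for each strain. Controls: azithromycin and solithromycin.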
# A. baumannii = test: Broth dilution MIC determination (CLSI) against A. baumannii strains; settings: for MIC: Acinetobacter baumannii
# Summary of the method: as §1
# S. pyogenes = test: Broth dilution MIC determination (CLSI) against S. pyogenes strains; settings: for MIC: Streptococcus pyogenes
# Summary of the method: as §1
# H. influenzae = test: Broth dilution MIC determination (CLSI) against H. influenzae strains; settings: for MIC: Haemophilus influenzae
# From the text: Minimum inhibitory concentrations (MICs) for macrolides described herein have been determined for unique strains of S. aureus, S. pneumoniae, S. pyogenes, E. faecalis, E. coli, A. baumannii, K. pneumoniae, P. aeruginosa, and H. influenzae, including several multidrug-resistant strains, with a special focus on macrolide resistant mechanisms. Azithromycin and solithromycin were included as control compounds. CLSI standard procedures for broth dilution MIC determination were used. Data for exemplary compounds described herein is shown in Tables M1-M7 and in Tables N1-N4.
# P. aeruginosa = test: Broth dilution MIC determination (CLSI) against P. aeruginosa strains
# Summary of the method: as §1
# S. pneumoniae = test: Broth dilution MIC determination (CLSI) against S. pneumoniae strains; settings: for MIC: Streptococcus pneumoniae
# Summary of the method: as §1
# K. pneumoniae = test: Broth dilution MIC determination (CLSI) against K. pneumoniae strains; settings: for MIC: Klebsiella pneumoniae
# Summary of the method: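 CLSI broth-dilution MICs across a panel including multidrug- and macrolide-resistant strains, with azithromycin and solithromycin as control compounds.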
# S. aureus = test: Broth dilution MIC determination (CLSI) against S. aureus strains; settings: for MIC: Staphylococcus aureus
# Summary of the method: as §1
# E. faecalis = test: Broth dilution MIC determination (CLSI) against E. faecalis strains; settings: for MIC: Enterococcus faecalis
# Summary of the method: as §1
smiles,measurement,setting,value
CCC1OC(=O)C(C)C(=O)C(C)C(OC2OC(Cn3cc(-c4cnc(N)s4)nn3)CC(N(C)C)C2O)C(C)(OC)CC(C)CNC(C)C2N(CCCCn3cc(-c4cccc(N)c4)nn3)C(=O)OC12C (stereo not drawn) [FSM-22373],MIC E. coli ATCC25922,E. coli; ATCC25922,>32 µg/mL
same,MIC E. coli CTX-M-14,E. coli; CTX-M-14,>32 µg/mL
same,MIC E. coli NDM-1,E. coli; NDM-1,>32 µg/mL
same,MIC E. coli TEM-1,E. coli; TEM-1,>32 µg/mL
same,MIC A. baumannii ATCC19606,A. baumannii; ATCC19606,>32 µg/mL
same,MIC A. baumannii IMP-4,A. baumannii; IMP-4,>32 µg/mL
same,MIC A. baumannii chromosomal class C,A. baumannii; chromosomal class C,>32 µg/mL
same,MIC A. baumannii imipenem-resistant,A. baumannii; imipenem-resistant,>32 µg/mL
same,MIC S. pyogenes ATCC19615,S. pyogenes; ATCC19615,8 µg/mL
same,MIC S. pyogenes macrolide-resistant,S. pyogenes; macrolide-resistant,>32 µg/mL
same,MIC H. influenzae ATCC49247,H. influenzae; ATCC49247,>32 µg/mL
same,"MIC H. influenzae erythro > 4, azithro 1","H. influenzae; erythro > 4, azithro 1",16 µg/mL
same,MIC P. aeruginosa ATCC27853,P. aeruginosa; ATCC27853,>32 µg/mL
same,MIC P. aeruginosa HPA101-1477,P. aeruginosa; HPA101-1477,>32 µg/mL
same,MIC S. pneumoniae ATCC49619,S. pneumoniae; ATCC49619,<0.03125 µg/mL
same,MIC S. pneumoniae erm B + mef A genotype,S. pneumoniae; erm B + mef A genotype,32 µg/mL
same,"MIC S. pneumoniae erm B + tet(M, O) genotype","S. pneumoniae; erm B + tet(M, O) genotype",<0.03125 µg/mL
same,MIC K. pneumoniae ATCC10031,K. pneumoniae; ATCC10031,>32 µg/mL
same,MIC K. pneumoniae KPC-2,K. pneumoniae; KPC-2,>32 µg/mL
same,MIC K. pneumoniae SHV-12,K. pneumoniae; SHV-12,>32 µg/mL
same,MIC K. pneumoniae TEM-10,K. pneumoniae; TEM-10,32 µg/mL
same,MIC S. aureus ATCC29213,S. aureus; ATCC29213,>32 µg/mL
same,MIC S. aureus MRSA: USA100,S. aureus; MRSA: USA100,>32 µg/mL
same,MIC S. aureus MRSA: USA300,S. aureus; MRSA: USA300,>32 µg/mL
same,"MIC S. aureus USA600, GISA","S. aureus; USA600, GISA",>32 µg/mL
same,MIC S. aureus erm A genotype,S. aureus; erm A genotype,>32 µg/mL
same,MIC E. faecalis ATCC29212,E. faecalis; ATCC29212,32 µg/mL
same,MIC E. faecalis Vancomycin-resistant,E. faecalis; Vancomycin-resistant,>32 µg/mL
CC[C@H]1OC(=O)[C@H](C)C(=O)[C@H](C)[C@@H](O[C@@H]2OC(CNC(=O)c3ccccc3)CC(N(C)C)C2O)[C@](C)(OC)C[C@@H](C)CN[C@H](C)[C@H]2N(CCCCn3cc(-c4cccc(N)c4)nn3)C(=O)O[C@]12C (stereo partly drawn) [FSM-21880],MIC,"E. coli; ATCC25922, ATCC25922, read-out: MIC E. coli ATCC25922",16 µg/mL
same,MIC,"E. coli; read-out: MIC E. coli NDM-1, NDM-1",32 µg/mL
same,MIC,"A. baumannii; ATCC19606, ATCC19606, read-out: MIC A. baumannii ATCC19606",> 32 µg/mL
same,MIC,"A. baumannii; imipenem-resistant, read-out: MIC A. baumannii imipenem-resistant",32 µg/mL
same,MIC,"S. pyogenes; ATCC19615, ATCC19615, read-out: MIC S. pyogenes ATCC19615",< 0.0313 µg/mL
same,MIC,"S. pyogenes; macrolide-resistant, read-out: MIC S. pyogenes macrolide-resistant",1 µg/mL
same,MIC,"H. influenzae; ATCC49247, ATCC49247, read-out: MIC H. influenzae ATCC49247",4 µg/mL
same,MIC,"H. influenzae; erythro > 4, azithro 1, read-out: MIC H. influenzae erythro > 4, azithro 1",4 µg/mL
same,MIC,"P. aeruginosa; Pseudomonas aeruginosa, ATCC27853, read-out: MIC P. aeruginosa ATCC27853",> 32 µg/mL
same,MIC,"S. pneumoniae; ATCC49619, ATCC49619, read-out: MIC S. pneumoniae ATCC49619",< 0.0313 µg/mL
same,MIC,"S. pneumoniae; erm B + mef A genotype, read-out: MIC S. pneumoniae erm B + mef A genotype",1 µg/mL
same,MIC,"S. pneumoniae; erm B + tet(M, O) genotype, read-out: MIC S. pneumoniae erm B + tet(M, O) genotype",< 0.0313 µg/mL
same,MIC,"S. pneumoniae; read-out: MIC S. pneumoniae mef A genotype, mef A genotype",2 µg/mL
same,MIC,"S. pneumoniae; read-out: MIC S. pneumoniae mef A genotype, mef A genotype, first of two such columns (c3)",0.0625 µg/mL
same,MIC,"K. pneumoniae; ATCC10031, ATCC10031, read-out: MIC K. pneumoniae ATCC10031",8 µg/mL
same,MIC,"K. pneumoniae; KPC-2, read-out: MIC K. pneumoniae KPC-2",> 32 µg/mL
same,MIC,"S. aureus; ATCC29213, ATCC29213, read-out: MIC S. aureus ATCC29213",32 µg/mL
same,MIC,"S. aureus; MRSA / USA100, MRSA: USA100, read-out: MIC S. aureus MRSA: USA100",> 32 µg/mL
same,MIC,"S. aureus; MRSA / USA300, MRSA: USA300, read-out: MIC S. aureus MRSA: USA300",> 32 µg/mL
same,MIC,"S. aureus; USA600, USA600, GISA, read-out: MIC S. aureus USA600, GISA",> 32 µg/mL
same,MIC,S. aureus; read-out: MIC S. aureus erm A genotype,> 32 µg/mL
same,MIC,"E. faecalis; ATCC29212, ATCC29212, read-out: MIC E. faecalis ATCC29212",4 µg/mL
same,MIC,"E. faecalis; Vancomycin-resistant, read-out: MIC E. faecalis Vancomycin-resistant",> 32 µg/mL
